The subject of data set [1] is primary patient GBM cells. Briefly: Annexin V / propidium iodide flow cytometry of apoptotic and dead cells. It is filed as cell-based, human. Particulars: 72 h; for combined fraction of apoptotic (annexin+) and dead (annexin+ and PI+) GBM cells: mean±SD, cells from 3 patients. The text has this:
(§1) This study was approved by the Research Ethics Board at the University of Western Ontario (Approval #17290). GBM specimens were obtained at the time of operative resection and placed immediately into phosphate-buffered saline (PBS) with 0.5% fetal bovine serum (FBS; Life Technologies, Burlington, ON, Canada). The tissue was washed, digested and filtered through a 100-μm cell strainer. Samples were then centrifuged and resuspended in Dulbecco's modified Eagle's medium (DMEM; Wisent Bioproducts, St. Bruno, PQ, Canada) supplemented with 10% FBS, 1% non-essential amino acids and 1% penicillin/streptomycin (Life Technologies) before plating to a 35-mm dish for 30 min to allow blood cells to separate. The upper cell suspension was then transferred to two wells of a 24-well plate, freshly pre-coated with 10 μg/ml poly-L-lysine (Trevigen Inc., Gaithersburg, Md., USA) and incubated at 37° C. with 5% CO2. Cultures were passaged at approximately 80% confluence and split 1:2 using 0.25% trypsin with 0.53 mM ethylenediaminetetraacetic acid (EDTA; Wisent). The medium was changed twice per week. All assays were conducted using GBM cells from cultures at passages 4 through 12.
GBM cells (2×10^5 cells in 2 ml maintenance DMEM) were transferred to the 35 mm wells in standard 6-well plates and allowed to grow to ˜70% confluence before treatment. A clinical grade, platinum-based reference strip electrode (AD-Tech, Racine, Wis., USA) around the periphery and a stimulating electrode (Medtronic Ltd., Brampton, ON, Canada) in the centre of the well. The electrodes were connected to a waveform generator set to produce monophasic, square-wave pulses of 4 volts, with pulse width of 90 μsec and frequency of 130 Hz. This setting is in the range of that commonly used in clinical neuromodulation treatment for symptoms of movement disorders, such as Parkinson's disease (11). Control wells (i.e. sham-treated) were fitted with electrodes but no current was delivered. Treatment durations between 24-96 h were used to allow adequate time for antitumor effect while avoiding the need for medium change once IMT was initiated. Thus, all intact GBM cells, adherent and floating, contributed to the viability measures described below. GBM cells treated with chemotherapy were plated with DMEM containing temozolomide (50 μM; Sigma Aldrich) in 35 mm wells fitted with the IMT apparatus and received 72 h of concomitant IMT or sham conditions. The 50 μM temozolomide concentration reflects clinically relevant levels corresponding to the in vivo plasma concentration of 150 mg/m2 in the adjuvant phase of GBM treatment (24).
An Annexin V Apoptosis Detection Kit with propidium iodide (PI; BioLegend, San Diego, Calif., USA) was used for identification of apoptotic and dead cells, as per the manufacturer's instructions. Cell fractions were analyzed using a Becton Dickinson LSR II SORP flow cytometer running FACSDiva software (BD Biosciences, Mississauga, ON, Canada). Cells were first gated on forward scatter (FSC-) versus side scatter (SSC-) characteristics before excluding doublets using consecutive gating FSC-Area versus FSC-Width and SSC-Area versus SSC-Width plots. The populations of annexin V+/PI−, annexin V+/PI+, annexin V−/PI+ and annexin V−/PI− were then calculated with quadrant gates. Approximately 30,000 single cells were acquired per sample at a maximum event rate of 5,000 events per second. Data were analyzed using FlowJo v 9.6.3 (TreeStar, Inc., Ashland, Oreg., USA).
For orientation: A flow cytometer gives signals particle by particle.

Data set [2] deals with primary patient GBM cells. The data set can be described thus: MTT cell viability assay. It counts as cell-based, human. Particulars: 72 h, mean±SD, 3 patients.
Description: as §1, with “Cultures were passaged at approximately 80% confluence and split 1:2 using 0.25% trypsin with 0.53 mM ethylenediaminetetraacetic acid (EDTA; Wisent). The medium was changed twice per week. All assays were conducted using GBM cells from cultures at passages 4 through 12.” left out
Primary human patient GBM cells (1×10^5 cells in 2 ml maintenance DMEM) were seeded into one 35 mm well equipped with the IMT system and allowed to grow to ˜70% confluence. […] In the IMT-siRNA conditions, IMT was initiated at the time of transfection and maintained for the entire 48 h, after which the extent of target knockdown and GBM cell viability were assessed.
Cell viability was evaluated using the 3-(4,5-dimethylthiazol-2-yl)-2,5-diphenyltetrazolium (MTT) spectral analysis (Sigma Aldrich). […]
Background: Tetrazolium assays rely on reduction of a dye to a coloured formazan, in cell work by metabolically active cells.

Where [3] appears, read: temozolomide 50 μM combined with IMT (4 V, 130 Hz).
The mark [4] stands for this setting: temozolomide 50 μM, with concomitant IMT (4 V, 130 Hz), representative scatterplot.
The mark [5] stands for this setting: temozolomide 50 μM, without IMT, representative scatterplot.

SMILES strings stand for the structures.

Usually viability stands for a per cent measure of how many cells are alive, often set against a control.

For the compound `Cn1nnc2c(C(N)=O)ncn2c1=O` [temozolomide], in data set [1] (single-modality temozolomide 50 μM), the “combined fraction of apoptotic (annexin+) and dead (annexin+ and PI+) GBM cells” value amounted to 16.9±7.4%. Further, the “combined fraction of apoptotic (annexin+) and dead (annexin+ and PI+) GBM cells” value in data set [1] (setting [3]) was 52.4±21.8%. Besides, in data set [1] (setting [4]), the “dead cells (annexin and PI-positive), FIG. 4 scatterplot” value is 16%; the “live cells, FIG. 4 scatterplot” value was 25.2%. Further, in data set [1] (setting [5]), the “apoptotic cells (annexin-positive), FIG. 4 scatterplot” value turned out to be 14.1%; the “dead cells (annexin and PI-positive), FIG. 4 scatterplot” value is 9.4%; the “live cells, FIG. 4 scatterplot” value was determined as 76.1%. Further, the viability at 50 µM in data set [2] (Homo sapiens, temozolomide 50 μM alone, read-out: viability relative to untreated cells (MTT)) was 69.7 ± 11.8%. Also, in data set [2] (setting [3]), the “viability relative to untreated cells (MTT)” value is 29.1±3.2%.

For the origin of these results see patent publication US11167133B2, “Intratumoral modulation therapy” (LONDON HEALTH SCIENCES CENTRE RESEARCH INC., priority 2015, dated 2021).
